The results in this text go back to US20090081197A1 (Palatin Technologies, Inc., priority 2007, published 2009).

Non-standard residues stand in square brackets, D forms with d. Residues, ends and D or L forms follow the SMILES beside them. *: point of attachment. dPhe(4-Cl) = N[C@H](Cc1ccc(Cl)cc1)C(=O)O; Heptanoyl = CCCCCCC(=O)*; Bn = c1ccc(C*)cc1

Assay [1] has as its target T1, MC4-R (Homo sapiens, UniProt P32245). Description: Competitive inhibition assay using [I^125]-NDP-α-MSH, hMC4-R membranes. Format: binding. Also noted: host or cells: TREx-293 (HEK-293 stably expressing Tet repressor). Conditions: for inhibition at 1 µM: 1 μM test compound, read-out: Inhibition at 1 μM (NDP-α-MSH) In Normal System, MC4-R; for Ki: read-out: Ki (nM) (NDP-α-MSH) In Normal System, MC4-R. The method, then:
(§1) The ligand concentration used was 0.4 nM for MC3-R and MC5-R, 0.2 nM for MC4-R and 0.1 nM for B16-F10 (MC1-R) membranes. In certain experiments, hMC1-R was also employed.
(§2) The assay mixture was incubated for 90 minutes at room temperature, then filtered and the membranes washed three times with ice cold buffer. The filter was dried and counted in a gamma counter for remaining radioactivity bound to the membranes. […] Each assay was conducted in triplicate and the actual mean values are described, with results less than 0% reported as 0%.

For assay [2], the target named is MC5-R (Homo sapiens, UniProt P33032). Description: Competitive inhibition assay using [I^125]-NDP-α-MSH, hMC5-R membranes. In kind it is binding. Also noted: expressed in transfected cells. Conditions: for inhibition at 1 µM: 1 μM test compound, read-out: Inhibition at 1 μM (NDP-α-MSH) In Normal System, MC5-R; for Ki: read-out: Ki (nM) (NDP-α-MSH) In Normal System, MC5-R. The method, then:
as §1, §2

Assay [3] is described as follows: ICV food intake and body weight change. In kind it is in vivo. Conditions: rat, 1 nmol, 24 hours. The procedure:
ICV food intake and body weight change. Change in food intake and body weight was evaluated for selected compounds. Rats with indwelling intracerebroventricular cannulas (ICV rats) were obtained from Hilltop Lab Animals, Inc. (Scottdale, Pa.). Animals were individually housed in conventional plexiglass hanging cages and maintained on a controlled 12 hour on/off light cycle. Water and powdered (LabDiet, 5P00 Prolab RMH 3000) or pelleted (Harlan Teklad 2018 18% Protein Rodent Diet) food was provided ad libitum. For 1 week before treatment, 24-hour food intake and body weight change was recorded to assess a baseline for the group during vehicle treatment. The rats were dosed ICV with vehicle or selected compounds (1-3 nmol). The changes in body weight and food intake for the 24 hour period after dosing were determined. The changes in body weight and food intake for the 48 hour and 72 hour periods after dosing were also measured to determine reversal of changes in body weight and food intake effects back to baseline levels.

Assay [4] has as its target T1, MC4-R. Briefly: cAMP agonist stimulation, low receptor density system (0.1 ng/mL doxycycline). Conditions: 0.1 ng/mL doxycycline, low receptor density hMC4-R system; NDP-α-MSH maximal cAMP = 1.0.
The target in assay [5] is MC3-R (Homo sapiens, UniProt P41968). Briefly: Competitive inhibition assay using [I^125]-NDP-α-MSH, hMC3-R membranes. Format: binding. Also noted: expressed in transfected cells. Conditions: for inhibition at 1 µM: 1 μM test compound, read-out: Inhibition at 1 μM (NDP-α-MSH) In Normal System, MC3-R; for Ki: read-out: Ki (nM) (NDP-α-MSH) In Normal System, MC3-R. The procedure: as §1, §2
MC3-R, sequence (P41968 whole entry): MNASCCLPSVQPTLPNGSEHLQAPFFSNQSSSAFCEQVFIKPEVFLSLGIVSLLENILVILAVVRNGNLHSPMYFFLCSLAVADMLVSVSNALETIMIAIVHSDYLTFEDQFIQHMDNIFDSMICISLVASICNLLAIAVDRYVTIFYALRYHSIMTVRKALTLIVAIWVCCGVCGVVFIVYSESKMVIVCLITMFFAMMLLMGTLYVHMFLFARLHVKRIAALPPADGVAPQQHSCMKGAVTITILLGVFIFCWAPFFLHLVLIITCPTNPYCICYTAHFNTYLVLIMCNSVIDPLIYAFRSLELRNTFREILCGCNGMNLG

The target of assay [6] is T2, MC1-R (Mus musculus, UniProt Q01727).
T2 construct: B-16 mouse melanoma cells (containing MC1-R); endogenous in cells
T2 sequence (Q01727 whole entry): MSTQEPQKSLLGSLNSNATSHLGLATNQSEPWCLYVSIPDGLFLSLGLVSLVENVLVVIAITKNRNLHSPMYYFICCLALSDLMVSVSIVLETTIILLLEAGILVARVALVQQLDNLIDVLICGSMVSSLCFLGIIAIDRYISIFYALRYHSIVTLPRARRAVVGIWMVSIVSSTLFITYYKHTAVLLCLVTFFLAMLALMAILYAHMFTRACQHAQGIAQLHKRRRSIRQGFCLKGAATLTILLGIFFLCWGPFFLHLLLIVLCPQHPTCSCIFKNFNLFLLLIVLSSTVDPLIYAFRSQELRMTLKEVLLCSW
Briefly: Competitive inhibition assay using [I^125]-NDP-α-MSH, B-16 mouse melanoma cell membranes. Format: binding. Conditions: for inhibition at 1 µM: 1 μM test compound, read-out: Inhibition at 1 μM (NDP-α-MSH) In Normal System, MC1-R; for Ki: read-out: Ki (nM) (NDP-α-MSH) In Normal System, MC1-R. The procedure:
as §1, §2

For assay [7], the target named is T1, MC4-R. Briefly: cAMP functional activity assay in HEK-293 cells, normal system. In kind it is cell-based. Also noted: expressed in transfected cells; host or cells: HEK-293. Conditions: for intrinsic activity at MC4-R in a normal system / EC50: normal receptor density system; for intrinsic activity at MC4-R in a normal system: NDP-α-MSH = 1.0; for functional status at MC4-R in cAMP assay: normal system, 1 μM concentration where stated. The method, then:
General method for EC50 determination in functional activity assay. […] Data analysis and EC50 values were determined using nonlinear regression analysis with Prism Graph-Pad software.
Functional status. The agonist/antagonist status with respect to MC1-R, MC-3R, MC4-R and MC5-R of certain compounds of the invention was determined. Antagonistic activity was determined by measuring the inhibition of α-MSH-induced or NDP-α-MSH-induced cAMP levels following exposure to graded doses of compounds as in the preceding descriptions.
Assay for agonist. Evaluation of the molecules to elicit a functional response in HEK-293 cells expressing MC4-R was accomplished by measuring the accumulation of intracellular cAMP following treatment. Confluent HEK-293 cells expressing MC4-R receptors were detached by enzyme free cell suspension buffer. […] The cells were plated in a 96 well plates at a density of 0.5×10^5 cells per well and pre-incubated for 30 minutes. Test compounds (dissolved in dimethylsulfoxide (DMSO) at a concentration range of 0.05-5000 nM) were added in a total assay volume of 200 μL and cells were incubated for 1 hour at 37° C. The concentration of DMSO was always held at 1% in the assay mixture. NDP-α-MSH was used as the reference agonist. […] Data analysis and EC50 values were determined by using nonlinear regression analysis with Prism Graph-Pad software. […] Compounds with a response ratio of less than 0.1 (10%) were evaluated for antagonistic activity.
Background: cAMP levels reflect the balance of adenylyl cyclase and phosphodiesterase activity.

Assay [8] has as its target T1, MC4-R. Briefly: cAMP agonist stimulation, high receptor density system (10 ng/mL doxycycline). Conditions: for Efficacy/Intrinsic Activity: NDP-α-MSH maximal cAMP = 1.0.
Assay [9] can be described thus: Penile erection induction in male rats. Format: in vivo. Conditions: rat, IV; for penile erection response: 1 μg/kg. The procedure: Penile erection induction. The ability of compounds to induce penile erection (PE) in male rats was evaluated with selected compounds. Male Sprague-Dawley rats weighing 200-250 g were kept on a 12 hour on/off light cycle with food and water ad libitum. All behavioral studies were performed between 10 A.M. and 5 P.M. Groups of 4-8 rats were treated with compounds at a variety of doses via intravenous (IV) or intracerebroventricular (ICV) routes. Immediately after treatment, rats were placed into individual polystyrene cages (27 cm long, 16 cm wide, and 25 cm high) for behavioral observation. […] Controls utilized carrier without the test compound. Mean PEs in control groups were 0.17 to 0.5 PEs/rat by IV administration in various experiments and between 1-2 PEs/rat by ICV administration in various experiments, and thus only PEs with statistically relevant increases over the mean PEs in control groups are reported as inducing PEs. A PE response in IV animals greater than the mean PEs in control groups but less than 1.0 PEs/rat, particularly with less than all animals responding, was treated as equivocal, and not necessarily distinguishable from vehicle control. In selected instances, compounds with equivocal results in the IV model were tested for penile response in an ICV model, and compounds without a statistically relevant increase over the mean PEs in ICV control groups were determined to not induce PEs.

Assay [10] is described as follows: IP (and IN) food intake, mice. Format: in vivo. Conditions: mouse, IP, 10 mg/kg, 4 hours; read-out: maximal decrease in food intake. The method, then: IV and IP food intake and body weight change. Change in food intake and body weight was evaluated for selected compounds. Male Sprague-Dawley rats or male C57BL/6 mice were utilized. Animals were individually housed in conventional plexiglass hanging cages and maintained on a controlled 12 hour on/off light cycle. Water and powdered (LabDiet, 5P00 Prolab RMH 3000) or pelleted (Harlan Teklad 2018 18% Protein Rodent Diet) food was provided ad libitum. For 1 week before treatment, 24-hour food intake and body weight change was recorded to assess a baseline for the group during vehicle treatment. The rats were dosed IV with vehicle or selected compounds (0.5-3 mg/kg, and in some cases up to 10 mg/Kg) or dosed intraperitoneally (IP) with vehicle or selected compounds (0.5-10 mg/kg, and in some cases up to 50 mg/kg). Mice were dosed IP. […] The changes in body weight and food intake for the 48 hour and 72 hour periods after dosing were also measured to determined reversal of changes in body weight and food intake effects back to baseline levels.

Setting [11] is: 10 ng/mL doxycycline, high receptor density hMC4-R system.

T1 sequence (P32245 whole entry): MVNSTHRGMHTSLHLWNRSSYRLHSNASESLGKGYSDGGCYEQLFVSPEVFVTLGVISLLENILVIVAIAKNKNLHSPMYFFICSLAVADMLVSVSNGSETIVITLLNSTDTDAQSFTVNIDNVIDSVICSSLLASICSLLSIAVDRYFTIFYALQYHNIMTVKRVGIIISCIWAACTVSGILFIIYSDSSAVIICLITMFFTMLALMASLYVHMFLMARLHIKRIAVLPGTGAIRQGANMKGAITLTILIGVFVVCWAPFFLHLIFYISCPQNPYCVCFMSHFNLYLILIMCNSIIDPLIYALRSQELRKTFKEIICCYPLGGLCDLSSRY
MC5-R, sequence (P33032 whole entry): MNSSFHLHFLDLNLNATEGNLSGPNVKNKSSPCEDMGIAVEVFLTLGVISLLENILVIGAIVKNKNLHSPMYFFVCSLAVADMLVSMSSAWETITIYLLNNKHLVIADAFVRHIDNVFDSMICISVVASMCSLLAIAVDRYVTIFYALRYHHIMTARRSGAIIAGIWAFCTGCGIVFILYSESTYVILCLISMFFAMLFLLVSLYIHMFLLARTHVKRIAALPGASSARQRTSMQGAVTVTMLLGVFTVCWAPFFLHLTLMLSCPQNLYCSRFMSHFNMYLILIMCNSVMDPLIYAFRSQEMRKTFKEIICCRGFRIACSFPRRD

For `NCCCC[C@H]1C(=O)N(CCc2ccc3ccccc3c2)CCN1C(=O)[C@@H](Cc1ccc(Cl)cc1Cl)NC(=O)[C@@H]1CC[C@H](c2ccccc2)N1` [Example 18, (2S,5R)-5-phenyl-pyrrolidine-2-carboxylic acid [(R)-2-[(S)-2-(4-amino-butyl)-4-(2-naphthalen-2-yl-ethyl)-3-oxo-piperazin-1-yl]-1-(2,4-dichloro-benzyl)-2-oxo-ethyl]-amide], the inhibition (as a rule, the change of the read-out against control, counted positive when it falls) at 1 µM in assay [1] is 92%; in assay [2], 51%; in [5], 18%; in [6] it was 0%. Also, the Ki – broadly, a dissociation constant, usually derived from enzyme kinetics or from competition with a known ligand – in assay [1] came out at 50 nM; in [2], 789 nM; in assay [6], 1370 nM. Besides, the “decrease in body weight” value in [3] came to 2%. For the same molecule, the “decrease in food intake” value in [3] was 31%. For the same molecule, the “Efficacy/Intrinsic Activity” value is listed as “None” in assay [4] and 0.29 in [8] (setting [11]). Moreover, the “intrinsic activity at MC4-R in a normal system” value (from here on “intrinsic activity at MC4-R”) in [7] amounted to 0.2. The “functional status at MC4-R in cAMP assay” value in [7] is “partial agonist (intrinsic activity between 0.1 (10%) and 0.7 (70%) is classified as a partial agonist)”. Besides, in assay [8], a half-maximal effect (EC50) was put at 0.281 µM.
For `NCCCC[C@H]1C(=O)N(CCc2ccc3ccccc3c2)CCN1C(=O)[C@@H](Cc1ccc(Cl)cc1Cl)NC(=O)c1ccc(Oc2ccccc2)cc1` [Example 21, N—[(R)-2-[(S)-2-(4-Amino-butyl)-4-(2-naphthalen-2-yl-ethyl)-3-oxo-piperazin-1-yl]-1-(2,4-dichloro-benzyl)-2-oxo-ethyl]-4-phenoxy-benzamide], the inhibition at 1 µM was determined as 99% in [1], 51% in assay [2], 51% in assay [5] and 35% in [6]. Besides, in assay [3], the “decrease in body weight” value is recorded as 1%. For the same molecule, in assay [3], the “decrease in food intake” value is given as 2%. The “Penile Erection IV” value in assay [9] is “No”. The penile erection response result in [9] is recorded as “no penile erection response”. The “Efficacy/Intrinsic Activity” value in assay [4] and in assay [8] (setting [11]) was “None” in each case. Further, in assay [7], the “functional status at MC4-R in cAMP assay” value was “no intrinsic activity (intrinsic activity below 0.1 (10%) is classified as inactive or having no intrinsic activity)”.
Turning to `CCCCCCC(=O)N[C@H](C(=O)N[C@H](Cc1ccc(Cl)cc1)C(=O)N[C@@H](CCCNC(=N)N)C(=O)N[C@@H](Cc1c[nH]c2ccccc12)C(N)=O)[C@@H](C)OCc1ccccc1` [Example 23, Heptanoyl-Thr(Bzl)-D-Phe(4-Cl)-Arg-Trp-NH2] (Heptanoyl-T(Bn)[dPhe(4-Cl)]RW-NH2), in assay [3], the “decrease in body weight” value worked out at 1% and the “decrease in food intake” value stood at 18%. Also, in assay [9], the “Penile Erection IV” value was “No” and the penile erection response result is recorded as “no penile erection response”. Further, in assay [4], the “Efficacy/Intrinsic Activity” value is “None”. For the same molecule, in assay [7], the “intrinsic activity at MC4-R” value is listed as 0.4; the “functional status at MC4-R in cAMP assay” value was “partial agonist (intrinsic activity between 0.1 (10%) and 0.7 (70%) is classified as a partial agonist)”. Also, in assay [8], the EC50 (in general, the concentration that produces a half-maximal response) is 0.184 µM. Besides, the “Efficacy/Intrinsic Activity” value in assay [8] (setting [11]) was determined as 0.75.
For `CC(=O)N[C@H](Cc1ccc2ccccc2c1)C(=O)N1C[C@@H](C)N(C(=O)Cc2ccc3ccccc3c2)C[C@@H]1CCCNC(=N)N` [Example 32, N-{(R)-2-[(2S,5R)-2-(3-guanidino-propyl)-5-methyl-4-(2-naphthalen-2-yl-acetyl)-piperazin-1-yl]-1-naphthalen-2-ylmethyl-2-oxo-ethyl}-acetamide], the inhibition at 1 µM in [1] came out at 97%; in [2], 44%; in [5], 38%; in [6], 51%. In addition, the Ki in assay [1] was 7 nM; in assay [2], 826 nM; in assay [5] it was 634 nM; in [6] it was 406 nM. Also, the inhibition in vivo at 10 mg/kg in [10] is 34%. In assay [7], this molecule returned an EC50 of 7 nM.
For “(E)-N—[(R)-2-[(S)-2-(4-Amino-butyl)-4-(2-naphthalen-2-yl-ethyl)-3-oxo-piperazin-1-yl]-1-(2,4-dichloro-benzyl)-2-oxo-ethyl]-3-phenyl-acrylamide [Example 20]”, in assay [1], the Ki is 6 nM. The Ki in assay [2] came out at 398 nM. In [3], the “decrease in body weight” value is given as 3% and the “decrease in food intake” value is 4%. For the same molecule, in assay [9], the “Penile Erection IV” value is listed as “No” and the penile erection response entry was “no penile erection response”. For the same molecule, the “Efficacy/Intrinsic Activity” value in assay [4] is on record as “None”. For the same molecule, the Ki in assay [5] came out at 648 nM. The Ki in assay [6] was 502 nM. In assay [7], the EC50 was found to be 112 nM; the “intrinsic activity at MC4-R” value was found to be 0.2; the “functional status at MC4-R in cAMP assay” value is “partial agonist (intrinsic activity between 0.1 (10%) and 0.7 (70%) is classified as a partial agonist)”. Moreover, in [8] (setting [11]), it took 0.215 µM to reach a half-maximal effect (EC50) and the “Efficacy/Intrinsic Activity” value was 0.38.
